Experimental data: ChEMBL document CHEMBL4393691, “Design, synthesis and antitumor evaluation of novel celastrol derivatives” (Eur J Med Chem, 2019)
Active and inactive are the calls of the source. The rule behind the calls is not given here.

How the values were obtained:
A549 [1] = test: Cell cycle arrest in human A549 cells assessed as accumulation at G1 phase at 0.18 uM incubated for 12 hrs by propidium iodide staining based flow cytometry analysis (Rvb=49.49%); format: functional
MCF7 [2] = test: Antiproliferative activity against human MCF7 cells assessed as reduction in cell viability at 1 uM incubated for 48 hrs by MTT assay relative to control; format: functional; details: MCF7, 48 h
A549 [3] = test: Induction of apoptosis in human A549 cells assessed as viable cells at 0.6 uM incubated for 24 hrs by AnnexinV-FITC/propidium iodide staining-based flow cytometric analysis (reference value: 88.1%); format: functional; details: A549, 24 h, read-out: Activity
A549 [4] = test: Induction of apoptosis in human A549 cells assessed as viable cells at 0.8 uM incubated for 24 hrs by AnnexinV-FITC/propidium iodide staining-based flow cytometric analysis (reference value: 88.1%); format: functional; details: A549, 24 h, read-out: Activity
A549 [5] = test: Induction of apoptosis in human A549 cells assessed as late apoptotic cells at 1.2 uM incubated for 24 hrs by AnnexinV-FITC/propidium iodide staining-based flow cytometric analysis (reference value: 4.2%); format: functional
A549 [6] = test: Cell cycle arrest in human A549 cells assessed as accumulation at S phase at 0.18 uM incubated for 12 hrs by propidium iodide staining based flow cytometry analysis (Rvb=38.46%); format: functional
A549 [7] = test: Induction of apoptosis in human A549 cells assessed as cell shrinkage at 0.06 to 0.18 uM incubated for 48 hrs by Hoechst 33342 staining-based fluorescence microscopy; format: functional
A549 [8] = test: Induction of apoptosis in human A549 cells assessed as late apoptotic cells at 0.4 uM incubated for 24 hrs by AnnexinV-FITC/propidium iodide staining-based flow cytometric analysis (reference value: 4.2%); format: functional
A549 [9] = test: Cell cycle arrest in human A549 cells assessed as accumulation at S phase at 0.27 uM incubated for 24 hrs by propidium iodide staining based flow cytometry analysis (Rvb=27.61%); format: functional
A549 [10] = test: Cell cycle arrest in human A549 cells assessed as accumulation at S phase at 0.27 uM incubated for 12 hrs by propidium iodide staining based flow cytometry analysis (Rvb=38.46%); format: functional
A549 [11] = test: Induction of apoptosis in human A549 cells assessed as late apoptotic cells at 0.8 uM incubated for 24 hrs by AnnexinV-FITC/propidium iodide staining-based flow cytometric analysis (reference value: 4.2%); format: functional
A549 [12] = test: Cell cycle arrest in human A549 cells assessed as accumulation at G2 phase at 0.06 uM incubated for 12 hrs by propidium iodide staining based flow cytometry analysis (Rvb=11.7%); format: functional
A549 [13] = test: Cell cycle arrest in human A549 cells assessed as accumulation at G2 phase at 0.06 uM incubated for 24 hrs by propidium iodide staining based flow cytometry analysis (Rvb=18.01%); format: functional
A549 [14] = test: Cell cycle arrest in human A549 cells assessed as accumulation at G0/G1 phase by propidium iodide staining based flow cytometric analysis; format: functional
A549 [15] = test: Induction of apoptosis in human A549 cells assessed as early apoptotic cells at 0.4 uM incubated for 24 hrs by AnnexinV-FITC/propidium iodide staining-based flow cytometric analysis (reference value: 4.1%); format: functional
A549 [16] = test: Induction of apoptosis in human A549 cells assessed as viable cells at 0.2 uM incubated for 24 hrs by AnnexinV-FITC/propidium iodide/propidium iodide staining-based flow cytometric analysis (reference value: 88.1%); format: functional; details: A549, 24 h, read-out: Activity
A549 [17] = test: Induction of apoptosis in human A549 cells assessed as early apoptotic cells at 1.2 uM incubated for 24 hrs by AnnexinV-FITC/propidium iodide staining-based flow cytometric analysis (reference value: 4.1%); format: functional
A549 [18] = test: cells; details: Homo sapiens, A549, 48 h
MCF7 [19] = test: cells; details: Homo sapiens, MCF7, 48 h
A549 [20] = test: Induction of apoptosis in human A549 cells assessed as increase in caspase-3 expression incubated for 8 hrs by western blot analysis; format: functional, cell-based

## COC(=O)/C=C\c1ccc(OC)c(OCCOC(=O)[C@]2(C)CC[C@]3(C)CC[C@]4(C)C5=CC=C6C(=CC(=O)C(O)=C6C)[C@]5(C)CC[C@@]4(C)[C@@H]3C2)c1
A549 [1]
  Activity: 56.86%
MCF7 [2]
  inhibition at 1 µM: 87.7%
A549 [3]
  viability at 0.6 µM: 50.6%
A549 [4]
  viability at 0.8 µM: 33.7%
A549 [5]
  Activity: 52.2%
A549 [6]
  Activity: 34.71%
A549 [7]
  Activity: Active
A549 [8]
  Activity: 16.4%
A549 [9]
  Activity: 23.55%
A549 [10]
  Activity: 35.25%
A549 [11]
  Activity: 43.3%
A549 [12]
  Activity: 12.14%
A549 [13]
  Activity: 15.7%
A549 [14]
  Activity: Dose-dependent effect
A549 [15]
  Activity: 10%
A549 [16]
  viability at 0.2 µM: 77.7%
A549 [17]
  Activity: 11.3%
A549 [18]
  IC50: 150 nM
MCF7 [19]
  IC50: 170 nM
A549 [20]
  Activity: Active
